The record followed here is patent publication US20100004403A1, “High-Molecular Weight Conjugate of Combretastatins” (priority 2006, published 2010).

Test [1] deals with Mouse colon cancer, Colon26. Description: Antitumor effect, Test Example 3: subcutaneously transplanted Colon26 in mice, single intravenous administration. It is filed as in vivo, mouse (female CDF1 mice). The settings on record: 200 mg/kg (as combretastatin A-4), single i.v. Here is the method: (§1) Mouse colon cancer, Colon26, maintained by serial subcutaneous subculture in mice was minced into about 1-mm square fragments, and the fragments were subcutaneously transplanted on the dorsal part of female CDF1 mice with a trocar. Seven days after tumor transplantation, the high-molecular weight conjugate of the present invention (compound 2 and compound 3) or a control drug (combretastatin A-4 phosphoric acid ester) synthesized by a method according to Non-Patent Document 1 was administered a single time intravenously to the mouse tail vein, at a dose respectively calculated on the basis of combretastatin A-4. The control is a group not given the drug. Compound 2, compound 3 and the control drug were all dissolved in a 5% glucose injection solution and used. After the administration, the major axis (L mm) and the minor axis (W mm) of the tumor were measured using a caliper, and the volume of tumor was calculated by the formula: (L×W^2)/2.

In test [2] the test system is Mouse colon cancer, Colon26. In words: Antitumor effect, Test Example 2: subcutaneously transplanted Colon26 in mice, single intravenous administration. It is filed as in vivo, mouse (female CDF1 mice). The settings on record: single i.v. Here is the method: as §1, with “2-mm” for “1-mm”, “1)” for “2 and compound 3)”, “A-4)” for “A-4 phosphoric acid ester) synthesized by a method according to Non-Patent Document 1”, “1 was” for “2, compound 3 and the control drug were all”, “used. Combretastatin A-4 was dissolved in dimethylsulfoxide and Cremophor EL (manufactured by Sigma-Aldrich Company), and was used after diluted with a 5% glucose injection solution at the time of use.” for “used.”

On to `COc1ccc(/C=C\c2cc(OC)c(OC)c(OC)c2)cc1OP(=O)(O)O` [Combretastatin A-4 phosphoric acid ester, combretastatin A-4 phosphoric acid ester], for which the “relative tumor volume based on the tumor volume on the day of initiation of administration” value (from here on “relative tumor volume based”) in test [1] (day 0 after administration) amounted to 1.00; in test [1] (day 2 after administration), 1.57; in test [1] (day 4 after administration), 3.12; in test [1] (day 7 after administration), 9.33; in test [1] (day 9 after administration), 10.11.
`COc1ccc(/C=C\c2cc(OC)c(OC)c(OC)c2)cc1O` [Combretastatin A-4, combretastatin A-4]: the “relative tumor volume based” value in test [2] (200 mg/kg (as combretastatin A-4), day 0 after administration) was determined as 1.00; in test [2] (200 mg/kg (as combretastatin A-4), day 2 after administration) it was 1.77; in test [2] (200 mg/kg (as combretastatin A-4), day 4 after administration), 3.73; in test [2] (200 mg/kg (as combretastatin A-4), day 7 after administration) it was 9.25; in test [2] (200 mg/kg (as combretastatin A-4), day 8 after administration), 12.03; in test [2] (400 mg/kg, day 0 after administration), 1.00. In addition, the “relative tumor volume based” value in test [2] (400 mg/kg, day 2 after administration) is given as 1.24; in test [2] (400 mg/kg, day 4 after administration), 2.21; in test [2] (400 mg/kg, day 7 after administration), 5.09; in test [2] (400 mg/kg, day 8 after administration), 6.41.
